Test systems include HL-60; UACC-62; HCT-15; MCF7; SK-MEL-5; UACC-257; SR; SK-MEL-2; NCI-H23; SK-MEL-28; NCI-H522; SN12C; Malme-3M; HOP-92; HT-29; HCC 2998; SF-295; OVCAR-4; SF-268; PC-3.
What all share (experiment): NCI anticancer screen, dose series, 48 h

These results are taken from ChEMBL document CHEMBL1201862, “PubChem BioAssay data set” (2004).

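Compound exposure: 48 hours, 5 concentrations, 96-well plates. Here, GI50 denotes the concentration required for 50% inhibition of growth.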 Calls of active or inactive are those of the source. Rule as the data show it: active = GI50 up to about 1.1 µM and inactive = higher.

For `O=c1[nH]/c(=C/c2ccc(OCc3ccccc3)cn2)c(=O)[nH]/c1=C/c1ccc(Cl)cc1`, the GI50 is 0.726 µM (active) in the assay with HL-60; 1.94 µM (inactive) in the assay with UACC-62; 0.469 µM with HCT-15; 0.546 µM (active) in the assay with MCF7; 1.01 µM (active) with SK-MEL-5; 1 µM (active) with UACC-257. The GI50 in the assay on SR was 0.301 µM (active); in the assay on SK-MEL-2, 4.73 µM (inactive); in the assay on NCI-H23 it was 7.87 µM (inactive); in the assay on SK-MEL-28, > 76.7 µM (inactive); with NCI-H522, 0.723 µM (active); with SN12C, 48.3 µM (inactive). The GI50 in the assay with Malme-3M is 0.624 µM (active); with HOP-92 it was 13.9 µM (inactive); in the assay with HT-29, 2.8 µM (inactive); with HCC 2998, 2.52 µM (inactive); in the assay with SF-295, 0.692 µM (active); in the assay on OVCAR-4 it was 2.42 µM (inactive). Further, the GI50 with SF-268 is 1.87 µM (inactive).

For `C=C1CC2C(=O)N(c3ccccc3)C(=O)C2CC1n1[nH]c(=O)n(Cc2ccccc2)c1=O` (configuration not stated), the GI50 with HL-60 was > 100 µM (inactive); in the assay with UACC-62, > 100 µM (inactive); with HCT-15 it was more than 100 µM; with SK-MEL-5 it was > 100 µM (inactive); in the assay with UACC-257 it was > 100 µM (inactive); in the assay with SR it was > 100 µM (inactive). Further, the GI50 with SK-MEL-2, in the assay with NCI-H23, in the assay with SK-MEL-28, in the assay on NCI-H522, in the assay on SN12C and in the assay with Malme-3M was > 100 µM (inactive) in each case. Also, the GI50 in the assay with HOP-92, with HT-29, in the assay on HCC 2998, in the assay with SF-295, in the assay with OVCAR-4 and with SF-268 was > 100 µM (inactive) throughout.

As for `CC(C)(C)N1C(=O)[N-]/[N+](=C(/C(c2ccccc2)=[N+]2/[N-]C(=O)N(C(C)(C)C)C2=O)c2ccccc2)C1=O`, the GI50 with UACC-62 was > 100 µM (inactive); in the assay on HCT-15, more than 100 µM; with MCF7 it was > 100 µM (inactive); in the assay with SK-MEL-5 it was > 100 µM (inactive); with UACC-257, > 100 µM (inactive); with SK-MEL-2, > 100 µM (inactive). Also, the GI50 in the assay with NCI-H23, with SK-MEL-28, in the assay with SN12C, in the assay on PC-3, with HOP-92 and in the assay with HCC 2998 was > 100 µM (inactive) each time. Besides, the GI50 in the assay with SF-295, in the assay with OVCAR-4 and in the assay on SF-268 was > 100 µM (inactive) throughout.

`COc1ccc(S(=O)(=O)N/N=C(\C)CN2C(=O)c3ccccc3C2=O)cc1OC`: the GI50 with HL-60 is > 100 µM (inactive); in the assay on UACC-62 it was > 100 µM (inactive); in the assay on HCT-15, more than 100 µM; with SK-MEL-5, > 100 µM (inactive); in the assay on UACC-257, > 100 µM (inactive); in the assay on SR it was > 100 µM (inactive). The GI50 in the assay on SK-MEL-2, in the assay with NCI-H23, in the assay with SK-MEL-28, in the assay on NCI-H522, in the assay on SN12C and with Malme-3M was > 100 µM (inactive) each time. In addition, the GI50 with HOP-92, in the assay on HT-29, in the assay with HCC 2998, with SF-295, with OVCAR-4 and with SF-268 was > 100 µM (inactive) in each case.

On to `Cc1ccc([N+](=O)[O-])cc1NC(=O)C(=O)C1CCC2=C(Sc3ccccc3N2)C1=O` (configuration not stated), for which the GI50 with HL-60 is > 100 µM (inactive); in the assay on UACC-62 it was > 100 µM (inactive); in the assay with HCT-15 it was more than 100 µM; with MCF7, > 100 µM (inactive); in the assay on SK-MEL-5, > 100 µM (inactive); with UACC-257 it was > 100 µM (inactive). Moreover, the GI50 in the assay on SK-MEL-2 was > 100 µM (inactive); in the assay with NCI-H23, > 100 µM (inactive); with SK-MEL-28, > 100 µM (inactive); in the assay with NCI-H522, > 100 µM (inactive); in the assay on SN12C it was > 100 µM (inactive); with PC-3, 53 µM (inactive). Besides, the GI50 in the assay on HOP-92, in the assay with HT-29, with HCC 2998, in the assay with SF-295, with OVCAR-4 and in the assay with SF-268 was > 100 µM (inactive) in each case.

Consider `O=C1C(Cl)=C(Cl)C(=O)N1c1ccc(Cl)c(Cl)c1Cl`, for which the GI50 in the assay on HL-60 was 24.3 µM (inactive); in the assay with UACC-62, 30.5 µM (inactive); in the assay with HCT-15, 31.1 µM; in the assay with SK-MEL-5, > 100 µM (inactive); with UACC-257, > 100 µM (inactive); in the assay on SR it was 26.9 µM (inactive). Also, the GI50 with SK-MEL-2 is > 100 µM (inactive); with NCI-H23, 61.8 µM (inactive); in the assay with SK-MEL-28, > 100 µM (inactive); with NCI-H522, 14.4 µM (inactive); with SN12C it was 58.1 µM (inactive); with Malme-3M, 31.6 µM (inactive). Further, the GI50 with HOP-92 was 24.7 µM (inactive); in the assay on HT-29 it was 51.4 µM (inactive); in the assay on HCC 2998, > 100 µM (inactive); with SF-295 it was > 100 µM (inactive); with OVCAR-4, 28.4 µM (inactive); in the assay on SF-268 it was 38 µM (inactive).

As for `N/N=C(\c1nc2ccc(Cl)cc2nc1O)C(O)c1ccc(Cl)c(Cl)c1` (configuration not stated), the GI50 in the assay on HL-60 was > 100 µM (inactive); in the assay on UACC-62 it was > 100 µM (inactive); in the assay on HCT-15, more than 100 µM; in the assay with SK-MEL-5, > 100 µM (inactive); in the assay with UACC-257, > 100 µM (inactive); in the assay on SR, > 100 µM (inactive). Further, the GI50 in the assay with SK-MEL-2, in the assay on NCI-H23, in the assay with SK-MEL-28, with NCI-H522, in the assay on SN12C and with Malme-3M was > 100 µM (inactive) throughout. In addition, the GI50 is > 100 µM (inactive) in the assay with HOP-92; > 100 µM (inactive) in the assay with HT-29; > 100 µM (inactive) in the assay on HCC 2998; > 100 µM (inactive) with SF-295; 29.1 µM (inactive) with OVCAR-4; > 100 µM (inactive) in the assay on SF-268.

Take `Cn1c(=O)n2n(c1=O)C(S(=O)(=O)c1ccccc1)C2` (configuration not stated): the GI50 in the assay with UACC-62 is > 100 µM (inactive); in the assay on HCT-15 it was more than 100 µM; in the assay with MCF7, > 100 µM (inactive); in the assay with SK-MEL-5, > 100 µM (inactive); with UACC-257 it was > 100 µM (inactive); in the assay on SK-MEL-2 it was > 100 µM (inactive). The GI50 in the assay with NCI-H23, with SK-MEL-28, with NCI-H522, in the assay on SN12C, in the assay on PC-3 and in the assay with Malme-3M was > 100 µM (inactive) each time. Further, the GI50 with HOP-92, with HT-29, in the assay with HCC 2998, with SF-295, in the assay on OVCAR-4 and in the assay with SF-268 was > 100 µM (inactive) in each case.

For `CCOC(=O)c1nc2ccccc2nc1Oc1ccc(C#N)cc1`, the GI50 in the assay on HL-60 was > 100 µM (inactive); with UACC-62, > 100 µM (inactive); in the assay with HCT-15, more than 100 µM; with MCF7, > 100 µM (inactive); in the assay with SK-MEL-5, > 100 µM (inactive); in the assay on UACC-257, > 100 µM (inactive). Moreover, the GI50 with SK-MEL-2 was > 100 µM (inactive); in the assay on SK-MEL-28 it was > 100 µM (inactive); with SN12C, > 100 µM (inactive); in the assay on PC-3 it was > 100 µM (inactive); in the assay on Malme-3M, > 100 µM (inactive); in the assay with HOP-92 it was 96.6 µM (inactive). Moreover, the GI50 in the assay on HT-29, in the assay with SF-295, in the assay on OVCAR-4 and with SF-268 was > 100 µM (inactive) in each case.

For the molecule `O=c1[nH]c2c(C(F)(F)F)c(Cl)c(-c3ccccc3)nc2o1`, the GI50 is 1.41 µM (inactive) with HL-60; 75.5 µM (inactive) in the assay on UACC-62; 22.1 µM in the assay on HCT-15; 45.6 µM (inactive) in the assay on MCF7; 4.83 µM (inactive) with SK-MEL-5; 14.1 µM (inactive) in the assay on UACC-257. Further, the GI50 is 18.5 µM (inactive) in the assay with SK-MEL-2; 15.3 µM (inactive) in the assay with NCI-H23; 22.8 µM (inactive) in the assay on SK-MEL-28; 32.1 µM (inactive) with NCI-H522; 10.9 µM (inactive) in the assay with SN12C; 23.2 µM (inactive) in the assay on PC-3. Further, the GI50 is 9.33 µM (inactive) with HOP-92; 23.3 µM (inactive) in the assay on HT-29; 25.5 µM (inactive) with HCC 2998; 13.3 µM (inactive) in the assay with SF-295; 19.6 µM (inactive) in the assay on OVCAR-4; 54.7 µM (inactive) in the assay on SF-268.

Take `CCC1(OC(C)=O)C(=O)OCc2c1cc1n(c2=O)Cc2cc3ccccc3nc2-1` (configuration not stated): the GI50 is 0.421 µM (active) with HL-60; 0.251 µM (active) in the assay with UACC-62; 12.3 µM with HCT-15; 1.23 µM (inactive) in the assay with SK-MEL-5; 4.45 µM (inactive) with UACC-257; 0.276 µM (active) with SR. Besides, the GI50 in the assay with SK-MEL-2 was > 80 µM (inactive); with NCI-H23, 0.966 µM (active); in the assay with SK-MEL-28 it was 14 µM (inactive); in the assay with NCI-H522, 1.19 µM (inactive); with SN12C, 0.638 µM (active); in the assay with Malme-3M, 3.44 µM (inactive). Besides, the GI50 with HOP-92 is 24.8 µM (inactive); with HT-29, 3.63 µM (inactive); with HCC 2998 it was 4.42 µM (inactive); in the assay with SF-295, 0.778 µM (active); in the assay with OVCAR-4, 41.4 µM (inactive); with SF-268 it was 0.528 µM (active).

`Cc1cc(-c2nc3ccccc3s2)ccc1NS(=O)(=O)O`: the GI50 with UACC-62 was > 12.2 µM (inactive); in the assay with HCT-15, more than 4.65 µM; in the assay on MCF7 it was < 0.0382 µM (active); in the assay with SK-MEL-5 it was > 100 µM (inactive); with UACC-257, > 6.43 µM (inactive); with SR, 4.34 µM (inactive). For the same molecule, the GI50 in the assay with NCI-H23 is > 7.11 µM (inactive); with SK-MEL-28, > 42 µM (inactive); in the assay on SN12C, > 5.92 µM (inactive); in the assay on Malme-3M it was > 6.56 µM (inactive); in the assay with HT-29, > 4.65 µM (inactive); with SF-295, > 43.1 µM (inactive). Further, the GI50 in the assay on SF-268 is > 9.64 µM (inactive).
